# Read-outs that look alike come from different tables or passages of the source.
# Assay: Multiple ascending dose study: plasma pharmacokinetics
# Format: in vivo
# Settings: human, po; for Tmax: read-out: tmax Median
# Protocol: Four sequential cohorts of healthy participants (≥50 years and ≤85 years old) were treated with multiple ascending doses of Compound A up to the maximum tolerated dose (MTD). A total of 6 participants per cohort were randomized to Compound A. Proposed doses of Compound A were:
# Participants received Compound A capsules, orally once daily (QD) on Days 1 to 14 after an overnight fast of at least 10 hours. Compound A was administered orally with 240 milliliter (mL) (8 fluid ounces) of water.
# 1) Maximum drug concentration (Cmax) [Time Frame: Day 1 and Day 14]
# Blood samples were collected on Day 1 at predose and postdose 0.5 (30 minutes), 1, 1.5, 2, 3, 4, 5, 6, 8, 12, and 18 hours; Day 14 (at predose and postdose 0.5, 1, 1.5, 2, 3, 4, 5, 6, 8, 12, and 18 hours); and Day 15 (24 hours postdose from Day 14).
# 2) Mean time to reach maximum (peak) drug concentration (tmax) [Time Frame: Day 1 and Day 14]
# 4) Mean area under the concentration-time curve from zero time extrapolated to infinity (AUC(0-inf)) [Time Frame: Day 14]
compound,measurement,setting,value
"COc1ncc(C)c(-c2ccc3c(c2)[nH]c(=O)c2cnn([C@H]4CCOC4)c23)c1C [Compound A, (S)-7-(2-methoxy-3,5-dimethylpyridin-4-yl)-1-(tetrahydrofuran-3-yl)-1H-pyrazolo[4,3-c]quin olin-4(5H)-one]",AUC(0-t),"5 mg, Day 1, 5 mg QD oral, read-out: AUC(0-24 h) GM (% CV)",344 ng·h/mL
same,AUC(0-t),"5 mg, Day 1, 5 mg QD oral, read-out: AUC(0-24 h) Mean (SD)",352 ng·h/mL
same,AUC(0-t),"5 mg, Day 1, 5 mg QD oral, read-out: AUC(0-24 h) Median",340 ng·h/mL
same,Cmax,"5 mg, Day 1, 5 mg QD oral, read-out: Cmax GM (% CV)",26.3 ng/mL
same,Cmax,"5 mg, Day 1, 5 mg QD oral, read-out: Cmax Mean (SD)",27.4 ng/mL
same,Cmax,"5 mg, Day 1, 5 mg QD oral, read-out: Cmax Median",26.6 ng/mL
same,Tmax,"5 mg, Day 1, 5 mg QD oral",4 h
same,AUC(0-t),"5 mg, Day 14, 5 mg QD oral, read-out: AUC(0-24 h) GM (% CV)",844 ng·h/mL
same,AUC(0-t),"5 mg, Day 14, 5 mg QD oral, read-out: AUC(0-24 h) Mean (SD)",864 ng·h/mL
same,AUC(0-t),"5 mg, Day 14, 5 mg QD oral, read-out: AUC(0-24 h) Median",773 ng·h/mL
same,AUC(0-inf),"5 mg, Day 14, 5 mg QD oral, read-out: AUC(0-inf) GM (% CV)",2380 ng·h/mL
same,AUC(0-inf),"5 mg, Day 14, 5 mg QD oral, read-out: AUC(0-inf) Mean (SD)",2480 ng·h/mL
same,AUC(0-inf),"5 mg, Day 14, 5 mg QD oral, read-out: AUC(0-inf) Median",2510 ng·h/mL
same,Cmax,"5 mg, Day 14, 5 mg QD oral, read-out: Cmax GM (% CV)",58.6 ng/mL
same,Cmax,"5 mg, Day 14, 5 mg QD oral, read-out: Cmax Mean (SD)",61.7 ng/mL
same,Cmax,"5 mg, Day 14, 5 mg QD oral, read-out: Cmax Median",49.4 ng/mL
same,Tmax,"5 mg, Day 14, 5 mg QD oral",4 h
same,AUC(0-t),"10 mg, Day 1, 10 mg QD oral, read-out: AUC(0-24 h) GM (% CV)",781 ng·h/mL
same,AUC(0-t),"10 mg, Day 1, 10 mg QD oral, read-out: AUC(0-24 h) Mean (SD)",784 ng·h/mL
same,AUC(0-t),"10 mg, Day 1, 10 mg QD oral, read-out: AUC(0-24 h) Median",735 ng·h/mL
same,Cmax,"10 mg, Day 1, 10 mg QD oral, read-out: Cmax GM (% CV)",65.5 ng/mL
same,Cmax,"10 mg, Day 1, 10 mg QD oral, read-out: Cmax Mean (SD)",66.2 ng/mL
same,Cmax,"10 mg, Day 1, 10 mg QD oral, read-out: Cmax Median",65.8 ng/mL
same,Tmax,"10 mg, Day 1, 10 mg QD oral",2 h
same,AUC(0-t),"10 mg, Day 14, 10 mg QD oral, read-out: AUC(0-24 h) GM (% CV)",1900 ng·h/mL
same,AUC(0-t),"10 mg, Day 14, 10 mg QD oral, read-out: AUC(0-24 h) Mean (SD)",1940 ng·h/mL
same,AUC(0-t),"10 mg, Day 14, 10 mg QD oral, read-out: AUC(0-24 h) Median",1980 ng·h/mL
same,AUC(0-inf),"10 mg, Day 14, 10 mg QD oral, read-out: AUC(0-inf) GM (% CV)",5100 ng·h/mL
same,AUC(0-inf),"10 mg, Day 14, 10 mg QD oral, read-out: AUC(0-inf) Mean (SD)",5260 ng·h/mL
same,AUC(0-inf),"10 mg, Day 14, 10 mg QD oral, read-out: AUC(0-inf) Median",5360 ng·h/mL
same,Cmax,"10 mg, Day 14, 10 mg QD oral, read-out: Cmax GM (% CV)",135 ng/mL
same,Cmax,"10 mg, Day 14, 10 mg QD oral, read-out: Cmax Mean (SD)",137 ng/mL
same,Cmax,"10 mg, Day 14, 10 mg QD oral, read-out: Cmax Median",144 ng/mL
same,Tmax,"10 mg, Day 14, 10 mg QD oral",1.5 h
same,AUC(0-t),"25 mg, Day 1, 25 mg QD oral, read-out: AUC(0-24 h) GM (% CV)",1650 ng·h/mL
same,AUC(0-t),"25 mg, Day 1, 25 mg QD oral, read-out: AUC(0-24 h) Mean (SD)",1670 ng·h/mL
same,AUC(0-t),"25 mg, Day 1, 25 mg QD oral, read-out: AUC(0-24 h) Median",1700 ng·h/mL
same,Cmax,"25 mg, Day 1, 25 mg QD oral, read-out: Cmax GM (% CV)",125 ng/mL
same,Cmax,"25 mg, Day 1, 25 mg QD oral, read-out: Cmax Mean (SD)",129 ng/mL
same,Cmax,"25 mg, Day 1, 25 mg QD oral, read-out: Cmax Median",136 ng/mL
same,Tmax,"25 mg, Day 1, 25 mg QD oral",3.01 h
same,AUC(0-t),"25 mg, Day 14, 25 mg QD oral, read-out: AUC(0-24 h) GM (% CV)",5140 ng·h/mL
same,AUC(0-t),"25 mg, Day 14, 25 mg QD oral, read-out: AUC(0-24 h) Mean (SD)",5210 ng·h/mL
same,AUC(0-t),"25 mg, Day 14, 25 mg QD oral, read-out: AUC(0-24 h) Median",4760 ng·h/mL
same,AUC(0-inf),"25 mg, Day 14, 25 mg QD oral, read-out: AUC(0-inf) GM (% CV)",15400 ng·h/mL
same,AUC(0-inf),"25 mg, Day 14, 25 mg QD oral, read-out: AUC(0-inf) Mean (SD)",16200 ng·h/mL
same,AUC(0-inf),"25 mg, Day 14, 25 mg QD oral, read-out: AUC(0-inf) Median",14000 ng·h/mL
same,Cmax,"25 mg, Day 14, 25 mg QD oral, read-out: Cmax GM (% CV)",332 ng/mL
same,Cmax,"25 mg, Day 14, 25 mg QD oral, read-out: Cmax Mean (SD)",336 ng/mL
same,Cmax,"25 mg, Day 14, 25 mg QD oral, read-out: Cmax Median",318 ng/mL
same,Tmax,"25 mg, Day 14, 25 mg QD oral",3 h
same,AUC(0-t),"50 mg, Day 1, 50 mg QD oral, read-out: AUC(0-24 h) GM (% CV)",2970 ng·h/mL
same,AUC(0-t),"50 mg, Day 1, 50 mg QD oral, read-out: AUC(0-24 h) Mean (SD)",3110 ng·h/mL
same,AUC(0-t),"50 mg, Day 1, 50 mg QD oral, read-out: AUC(0-24 h) Median",3060 ng·h/mL
same,Cmax,"50 mg, Day 1, 50 mg QD oral, read-out: Cmax GM (% CV)",214 ng/mL
same,Cmax,"50 mg, Day 1, 50 mg QD oral, read-out: Cmax Mean (SD)",237 ng/mL
same,Cmax,"50 mg, Day 1, 50 mg QD oral, read-out: Cmax Median",226 ng/mL
same,Tmax,"50 mg, Day 1, 50 mg QD oral",3.53 h
same,AUC(0-t),"50 mg, Day 14, 50 mg QD oral, read-out: AUC(0-24 h) GM (% CV)",11500 ng·h/mL
same,AUC(0-t),"50 mg, Day 14, 50 mg QD oral, read-out: AUC(0-24 h) Mean (SD)",11800 ng·h/mL
same,AUC(0-t),"50 mg, Day 14, 50 mg QD oral, read-out: AUC(0-24 h) Median",10900 ng·h/mL
same,AUC(0-inf),"50 mg, Day 14, 50 mg QD oral, read-out: AUC(0-inf) GM (% CV)",38600 ng·h/mL
same,AUC(0-inf),"50 mg, Day 14, 50 mg QD oral, read-out: AUC(0-inf) Mean (SD)",40700 ng·h/mL
same,AUC(0-inf),"50 mg, Day 14, 50 mg QD oral, read-out: AUC(0-inf) Median",38100 ng·h/mL
same,Cmax,"50 mg, Day 14, 50 mg QD oral, read-out: Cmax GM (% CV)",778 ng/mL
same,Cmax,"50 mg, Day 14, 50 mg QD oral, read-out: Cmax Mean (SD)",788 ng/mL
same,Cmax,"50 mg, Day 14, 50 mg QD oral, read-out: Cmax Median",807 ng/mL
same,Tmax,"50 mg, Day 14, 50 mg QD oral",1.5 h
same,AUC(0-t),"50 mg, Part C, 50 mg oral, read-out: AUC (0-24 h) GM (% CV)",10500 ng·h/mL
same,AUC(0-t),"50 mg, Part C, 50 mg oral, read-out: AUC (0-24 h) Mean (SD)",10800 ng·h/mL
same,AUC(0-t),"50 mg, Part C, 50 mg oral, read-out: AUC (0-24 h) Median",10600 ng·h/mL

# Reference: patent US20220378706A1, “PHARMACEUTICAL COMPOSITION COMPRISING PDE9 INHIBITOR” (Eisai R&D Management Co., Ltd., priority 2017, published 2022)
